# Test results published in US11944662B2, “Methods and compositions for preventing or treating ophthalmic conditions” (Stealth BioTherapeutics Inc., priority 2009, dated 2024).
# Read-outs that look alike come from different tables or passages of the source. Where a SMILES comes first, the peptide text is derived from it. Where no end group is shown, it is not given here. [ ]: non-standard residue; d: D form. Dmt = Cc1cc(O)cc(C)c1C[C@H](N)C(=O)O
# Experiments:
# [1] = test system: trabecular meshwork cells from glaucoma patients (GTM)
# Description: (§1) To assess whether SS-31 had cytotoxic effects of HTM or GTM cells, various concentrations of SS-31 were administered to cells and the cytotoxicity was measured using an LDH assay. A LDH cytotoxicity assay is a colorimetric method of assaying cellular cytotoxicity. The assay quantitatively measures the stable, cytosolic, lactate dehydrogenase (LDH) enzyme, which is released from damaged cells. The released LDH is measured with a coupled enzymatic reaction that results in the conversion of a tetrazolium salt (iodonitrotetrazolium (INT)) into a red color formazan by diaphorase. […] See generally, Haslam, G. et al. (2005) Anal. Biochem. 336: 187; Tarnawski, A. (2005) Biochem. Biophys. Res. Comm. 333: 207; Round, J. L et al. (2005) J. Exp. Med. 201: 419; Bose, C. et al. (2005) Am. J. Physiol. Gastr. L. 289: G926; Chen, A. and Xu, J. (2005) Am. J. Physiol. Gastr. L. 288: G447. The LDH activity is determined as NADH oxidation or INT reduction over a defined time period.
# [2] = test system: trabecular meshwork cells from non-diseased individuals (HTM)
# Description: as §1
# GTM cells [3] = settings: n=4
# Description: (§4) The effects of SS-31 at mitigating acute oxidative injury in GTM and HTM cells was investigated.
# HTM cells [4] = settings: n=4
# Description: as §4
# HRECs = test: Survival of HRECs in high glucose, Annexin V/PI flow cytometry; assay type: cell-based, human; settings: 24 hours after treatment
# Description: FIGS. 1A and 1B show the effects of different concentrations of SS-31 (10 nM, 100 nM, 1 μM and 10 μM) used as co-treatment with 30 mM glucose (HG). […] FIG. 1B is a graphic representation of the survival ratio for HRECs.
# See generally, Li B, Tang S B, Zhang G, Chen J H, Li B J. Culture and characterization of human retinal capillary endothelial cell. Chin Ophthal Res 2005; 23: 20-2; Premanand C, Rema M, Sameer M Z, Sujatha M, Balasubramanyam M. Effect of curcumin on proliferation of human retinal endothelial cells under in vitro conditions. Invest Ophthalmol Vis Sci 2006; 47: 2179-84.
# Briefly, HREC cells were divided into three groups: a normal control group; a group administered 30 mM glucose; and a group administered 30 mM glucose+SS-31. Survival of HRECs in high glucose co-treated with different concentrations of SS-31 (10 nM, 100 nM, 1 μM, 10 μM) was measured using an Annexin V+PI assay and flow cytometry. See generally, Koopman, G., Reutelingsperger, C. P., Kuijten, G. A. M., Keehnen, R. M. J., Pals, S. T., and van Oers, M. H. J. 1994. Annexin V for flow cytometric detection of phosphatidylserine expression on B cells undergoing apoptosis. Blood 84: 1415; Homburg, C. H., de Haas, M., von dem Borne, A. E., Verhoeven, A. J., Reutelingsperger, C. P., and Roos, D. 1995. Human neutrophils lose their surface Fc gamma Rill and acquire Annexin V binding sites during apoptosis in vitro. Blood 85: 532; Vermes, I., Haanen, C., Steffens-Nakken, H., and Reutelingsperger, C. 1995. A novel assay for apoptosis-flow cytometric detection of phosphatidylserine expression on early apoptotic cells using fluorescein labelled Annexin V. J. Immunol. Meth. 184: 39; Fadok, V. A., Voelker, D. R., Campbell, P. A., Cohen, J. J., Bratton, D. L., and Henson, P. M. 1992. Exposure of phosphatidylserine on the surface of apoptotic lymphocytes triggers specific recognition and removal by macrophages. J. Immunol. 148: 2207.
# The survival of HRECs in high glucose co-treated with SS-31 was tested at 24 h and 48 h.
# HTM cells [5] = settings: n=4; remark: listed apart in the source
# Text: (§2) FIG. 37 is a graph showing the fluorescence intensity of ROS of GTM and HTM cells in control and SS-31-treated groups, as measured using FACS analysis.
# GTM cells [6] = settings: n=3
# Text: as §2
# [7] = test system: primary human retinal pigment epithelial (RPE) cells; settings: different concentrations, 24 h
# Description: Primary cultured human RPE cells were incubated with different concentrations of SS-31 alone for a period of 24 h, and cell viability was determined by a MTT assay (FIG. 22).
# lenses of diabetic rats [8] = test: Cataract formation in lenses, STZ diabetic rat model; assay type: in vivo, Sprague-Dawley rat; settings: 10 mg (Table 9: 10 mg/kg s.c.)
# Description: (§3) A rat model of diabetes was established by combination of 6-week HFD and low dose of STZ (30 mg/kg) injection or a single high dose of STZ (65 mg/kg) in SD rats. See generally, K. Srinivasan, B. Viswanad, Lydia Asrat, C. L. Kaul and P. Ramarao, Combination of high-fat diet-fed and low-dose streptozotocin-treated rat: A model for type 2 diabetes and pharmacological screening, Pharmacological Research, 52(4): 313-320, 2005. Rats of the same batch fed with normal chow (NRC) were used as a control.
# lenses of diabetic rats [9] = test: Cataract formation in lenses, HFD/STZ diabetic rat model; assay type: in vivo, Sprague-Dawley rat; settings: for Percentage of opacity (%) / Percentage of severe opacity (%) / Turbidity degree ++++ (count) / Turbidity degree +++ (count) / Turbidity degree ++ (count) / Turbidity degree + (count) / Turbidity degree − (count): HFD/STZ rat model; for Turbidity degree ++++ (count): ++++: severely opaque; for Turbidity degree +++ (count): +++: moderately opaque; for Turbidity degree ++ (count): ++: opaque; for Turbidity degree + (count): +: mildly opaque; for Turbidity degree − (count): −: transparent
# Description: The example describes the results of such experiments.
# as §3
# [10] = test system: inner blood-retinal barrier; test: Inner blood-retinal barrier function, Evans blue extravasation, diabetic rats; assay type: in vivo, Sprague-Dawley rat; settings: compared to rats on a HFD not administered SS-20 or SS-31
# Text: FIGS. 10A-10B is a series of charts showing the integrity of the blood-retinal barrier of normal rats (NRC), diabetic rats, and diabetic rats treated with SS-20 or SS-31, as analyzed by Evans blue extravasation. (10A) diabetes induced by STZ; (10B) diabetes induced by HFD/STZ.
# The effect of the aromatic-cationic peptides on the inner blood-retinal barrier function in the SD rat model was investigated.
compound,measurement,setting,value
"Cc1cc(O)cc(C)c1C[C@H](NC(=O)[C@H](N)CCCNC(=N)N)C(=O)N[C@@H](CCCCN)C(=O)N[C@@H](Cc1ccccc1)C(N)=O [SS-31, D-Arg-2′,6′-Dmt-Lys-Phe-NH2] (H-[dR][Dmt]KF-NH2)",cytotoxicity,[1]; at 10^−3 M,no cytotoxicity
same,viability (LDH cytotoxicity assay),[1]; various concentrations,does not affect the viability
same,cytotoxicity,[2]; at 10^−3 M,no cytotoxicity
same,viability (LDH cytotoxicity assay),[2]; various concentrations,does not affect the viability
same,percentage of fluorescence intensity of TMRM compared to GTM control,GTM cells [3]; H2O2 + SS-31 10^−6 M,56.2±4.04%
same,percentage of fluorescence intensity of TMRM compared to GTM control,GTM cells [3]; H2O2 + SS-31 10^−7 M,50.3±4.46%
same,percentage of fluorescence intensity of TMRM compared to GTM control,GTM cells [3]; H2O2 + SS-31 10^−8 M,47.5±2.82%
same,"percentage of fluorescence intensity of TMRM, HTM groups",HTM cells [4]; H2O2 + SS-31 10^−6 M,57.7±1.80%
same,"percentage of fluorescence intensity of TMRM, HTM groups",HTM cells [4]; H2O2 + SS-31 10^−7 M,50.6±3.06%
same,"percentage of fluorescence intensity of TMRM, HTM groups",HTM cells [4]; H2O2 + SS-31 10^−8 M,49.4±2.27%
same,survival ratios for HRECs (Q3),HRECs; 30 mM glucose + SS-31 10 nM,84.3%
same,survival ratios for HRECs (Q3),HRECs; 30 mM glucose + SS-31 100 nM,90.7%
same,survival ratios for HRECs (Q3),HRECs; 30 mM glucose + SS-31 1 μM,92.8%
same,survival ratios for HRECs (Q3),HRECs; 30 mM glucose + SS-31 10 μM,94.3%
same,"percentage of intracellular ROS production, HTM groups",HTM cells [5]; H2O2 + SS-31 10^−6 M,79±2.39%
same,"percentage of intracellular ROS production, HTM groups",HTM cells [5]; H2O2 + SS-31 10^−7 M,91.8±3.49%
same,"percentage of intracellular ROS production, HTM groups",HTM cells [5]; H2O2 + SS-31 10^−8 M,129.0±8.24%
same,percentage of intracellular ROS production compared to GTM control,GTM cells [6]; H2O2 + SS-31 10^−6 M,84.5±8.75%
same,percentage of intracellular ROS production compared to GTM control,GTM cells [6]; H2O2 + SS-31 10^−7 M,102.0±5.69%
same,percentage of intracellular ROS production compared to GTM control,GTM cells [6]; H2O2 + SS-31 10^−8 M,133.0±5.17%
same,"cell viability (MTT assay), SS-31 alone",[7],did not adversely effect
F[dR]FK-NH2 [SS-20],Percentage of opacity (%),lenses of diabetic rats [8],60.0%
same,Percentage of severe opacity (%),lenses of diabetic rats [8],20.0%
same,Opacity degree ++++ (count),lenses of diabetic rats [8]; ++++: severely opaque,1
same,Opacity degree +++ (count),lenses of diabetic rats [8]; +++: moderately opaque,0
same,Opacity degree ++ (count),lenses of diabetic rats [8]; ++: opaque,2
same,Opacity degree + (count),lenses of diabetic rats [8]; +: mildly opaque,0
same,Opacity degree − (count),lenses of diabetic rats [8]; −: transparent,2
same,cataract formation in the lenses of diabetic rats,"lenses of diabetic rats [9]; HFD/STZ and STZ models (FIGS. 6 and 7, Tables 11 and 12)",prevention or reversal of cataract formation
same,Percentage of opacity (%),lenses of diabetic rats [9]; 3 mg (Table 7: 3 mg/kg s.c.),75.0%
same,Percentage of severe opacity (%),lenses of diabetic rats [9]; 3 mg (Table 7: 3 mg/kg s.c.),25.0%
same,Turbidity degree ++++ (count),lenses of diabetic rats [9]; 3 mg (Table 7: 3 mg/kg s.c.),1
same,Turbidity degree +++ (count),lenses of diabetic rats [9]; 3 mg (Table 7: 3 mg/kg s.c.),0
same,Turbidity degree ++ (count),lenses of diabetic rats [9]; 3 mg (Table 7: 3 mg/kg s.c.),1
same,Turbidity degree + (count),lenses of diabetic rats [9]; 3 mg (Table 7: 3 mg/kg s.c.),1
same,Turbidity degree − (count),lenses of diabetic rats [9]; 3 mg (Table 7: 3 mg/kg s.c.),1
same,Percentage of opacity (%),lenses of diabetic rats [9]; 10 mg (Table 7: 10 mg/kg s.c.),75.0%
same,Percentage of severe opacity (%),lenses of diabetic rats [9]; 10 mg (Table 7: 10 mg/kg s.c.),0%
same,Turbidity degree ++++ (count),lenses of diabetic rats [9]; 10 mg (Table 7: 10 mg/kg s.c.),0
same,Turbidity degree +++ (count),lenses of diabetic rats [9]; 10 mg (Table 7: 10 mg/kg s.c.),0
same,Turbidity degree ++ (count),lenses of diabetic rats [9]; 10 mg (Table 7: 10 mg/kg s.c.),1
same,Turbidity degree + (count),lenses of diabetic rats [9]; 10 mg (Table 7: 10 mg/kg s.c.),2
same,Turbidity degree − (count),lenses of diabetic rats [9]; 10 mg (Table 7: 10 mg/kg s.c.),1
same,inner blood-retinal barrier function,[10],improved
